We go through 16 molecules from the supplement of paper PMC11061612.

Holding throughout (assay): Bliss excess, mean over the matrix (fraction); higher = more synergy
Test [1] has as its system SKN (Other Solid Carcinomas). The method in brief: (§1)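 Cell lines grown in DMEM/F12 or RPMI with 10% FBS were plated in 1536-well plates and held 24 hours at 37°C, 5% CO2 before 72 hours of exposure to two-drug dose matrices, with DMSO typically at 0.2%. CellTiter-Glo 2.0 luminescence gave viability, which was converted to inhibition. Vehicle wells were set to 0 and blank wells to 1. Combination Emax is the second-highest inhibition in the matrix, and Bliss excess is the observed combination effect minus the expected EA + EB − EA·EB, where EA and EB are the single-agent effects.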

Test [2] has as its system COLO-668 (Small Cell Lung Carcinoma). The method, boiled down: as §1
The test system of test [3] is SK-LU-1 (Lung Adenocarcinoma). The method, boiled down: as §1
The test system of test [4] is SW872 (Other Solid Carcinomas). The method, boiled down: as §1
Test [5] has as its system SNU-387 (Hepatocellular Carcinoma). The method, boiled down:
as §1

Test [6] deals with HAL-01 (B-Lymphoblastic Leukemia). The method in brief: as §1
Test [7] has as its system MOG-G-UVW (Low Grade Glioma). The method, boiled down:
as §1

The subject of test [8] is A4-Fuk (B-Lymphoblastic Leukemia). The method in brief: as §1
In test [9] the test system is KGN (Other Solid Carcinomas). The method in brief:
as §1

As to `C=CCn1c(=O)c2cnc(Nc3ccc(N4CCN(C)CC4)cc3)nc2n1-c1cccc(C(C)(C)O)n1` [AZD1775] + CCc1c2c(nc3ccc(O)cc13)-c1cc3c(c(=O)n1C2)COC(=O)[C@]3(O)CC [SN-38] (first compound max 1 µM, partner max 0.3 µM), the Bliss excess was -0.0126 in [1]; -0.0448 in test [2]; -0.133 in [3]; -0.0641 in test [4]; -0.0303 in test [5]; -0.0249 in test [6]. Further, the Bliss excess in test [7] is 0.0228; in test [8] it was -0.0617; in test [9], -0.114.

Regarding `C=CCn1c(=O)c2cnc(Nc3ccc(N4CCN(C)CC4)cc3)nc2n1-c1cccc(C(C)(C)O)n1` [AZD1775] + Nc1ccn([C@@H]2O[C@H](CO)[C@@H](O)C2(F)F)c(=O)n1 [Gemcitabine] (first compound max 1 µM, partner max 0.3 µM), the Bliss excess in test [1] is -0.0709; in [2], -0.0734; in test [3], -0.0837; in [4], 0.0462; in test [5], -0.0035; in [6] it was -0.0026. Further, the Bliss excess came to 0.0183 in test [7], 0.009 in test [8] and 0.0009 in test [9].

In the case of `CN(CCO)CC[C@H](CSc1ccccc1)Nc1ccc(S(=O)(=O)NC(=O)c2ccc(N3CCC([C@@H](O)c4ccccc4-c4ccc(Cl)cc4)CC3)cc2)cc1S(=O)(=O)C(F)(F)F` [AZD4320] + CS(=O)(=O)CCNCc1ccc(-c2ccc3ncnc(Nc4ccc(OCc5cccc(F)c5)c(Cl)c4)c3c2)o1 [Lapatinib] (first compound max 1 µM, 7x7, partner max 10 µM), the Bliss excess in test [1] is -0.0188; in test [2], 0.0881; in [3] it was -0.0415; in test [4], 0.0097; in test [5], 0.0496; in test [6] it was 0.193. For the same molecule, the figures for the Bliss excess in test [7], in [8] and in [9] were 0.0193, -0.0065 and -0.0448, respectively.

As to `Cc1c2c(nn1C)CSCc1cc(n(C)n1)CSc1cc(c3ccccc3c1)OCCCc1c(C(=O)O)n(C)c3c-2c(Cl)ccc13` [AZD5991] + CC(=O)O[C@H]1C(=O)[C@@]2(C)[C@H]([C@H](OC(=O)c3ccccc3)[C@]3(O)C[C@H](OC(=O)[C@H](O)[C@@H](NC(=O)c4ccccc4)c4ccccc4)C(C)=C1C3(C)C)[C@]1(OC(C)=O)CO[C@@H]1C[C@@H]2O [Paclitaxel] (first compound max 1 µM, 7x7, partner max 3 µM), the Bliss excess is -0.007 in test [1]; 0.028 in test [2]; -0.0288 in test [3]; 0.018 in test [4]; 0.0019 in test [5]; -0.0179 in [6]. Also, the Bliss excess in test [7] was 0.0217; in test [8] it was -0.0069; in test [9], 0.0025.

As for `Cc1c2c(nn1C)CSCc1cc(n(C)n1)CSc1cc(c3ccccc3c1)OCCCc1c(C(=O)O)n(C)c3c-2c(Cl)ccc13` [AZD5991] + CS(=O)(=O)CCNCc1ccc(-c2ccc3ncnc(Nc4ccc(OCc5cccc(F)c5)c(Cl)c4)c3c2)o1 [Lapatinib] (first compound max 1 µM, 7x7, partner max 10 µM), the Bliss excess is -0.0365 in test [1]; 0.0395 in [2]; -0.0423 in test [3]; 0.0129 in [4]; -0.028 in [5]; 0.162 in [6]. Besides, the Bliss excess was -0.0158 in test [7], 0.0199 in test [8] and -0.0049 in test [9].

Regarding `Cc1c2c(nn1C)CSCc1cc(n(C)n1)CSc1cc(c3ccccc3c1)OCCCc1c(C(=O)O)n(C)c3c-2c(Cl)ccc13` [AZD5991] + Nc1ccn([C@@H]2O[C@H](CO)[C@@H](O)C2(F)F)c(=O)n1 [Gemcitabine] (first compound max 1 µM, 7x7, partner max 0.3 µM), the Bliss excess in test [1] was -0.0331; in test [2], -0.0674; in test [3], -0.0518; in test [4], -0.0066; in test [5] it was -0.0021; in test [6] it was 0.0025. In addition, the Bliss excess is 0.0085 in test [7], -0.0182 in [8] and -0.0457 in [9].

As to `C[C@@H]1COCCN1c1cc(C2([S@](C)(=N)=O)CC2)nc(-c2ccnc3[nH]ccc23)n1` [AZD6738] + C1CC(C1)(C(=O)[O-])C(=O)[O-].N.N.[Pt+2] [Carboplatin] (first compound max 10 µM, 7x7, partner max 10 µM), the Bliss excess is -0.0766 in [1]; 0.025 in test [2]; -0.0088 in [3]; 0.0087 in [4]; -0.0308 in [5]; -0.0435 in test [6]. The values for the Bliss excess in test [7], in test [8] and in [9] were -0.0044, -0.0571 and -0.0084, respectively.

For `C[C@@H]1COCCN1c1cc(C2([S@](C)(=N)=O)CC2)nc(-c2ccnc3[nH]ccc23)n1` [AZD6738] + Nc1ccn([C@@H]2O[C@H](CO)[C@@H](O)C2(F)F)c(=O)n1 [Gemcitabine] (first compound max 10 µM, 7x7, partner max 0.3 µM), the Bliss excess in [1] is 0.0033; in test [2], 0.0525; in test [3], -0.0668; in [4] it was 0.0769; in [5], 0.0597; in [6], -0.0031. The Bliss excess in [7] was 0.0856; in test [8], -0.0486; in [9], 0.0065.

As to `C[C@@H](Nc1cc(F)cc(F)c1)c1cc(C(=O)N(C)C)cc2c(=O)cc(N3CCOCC3)oc12` [AZD8186] + C1CN(CCC1(C(=O)N[C@@H](CCO)C2=CC=C(C=C2)Cl)N)C3=NC=NC4=C3C=CN4 [AZD5363] (first compound max 10 µM, 7x7, partner max 10 µM), the Bliss excess in [1] was -0.1; in test [2], -0.002; in test [3], 0.02; in test [4], 0.0068; in test [5] it was -0.0959; in test [6], -0.0657. Also, the results for the Bliss excess in test [7], in test [8] and in test [9] were -0.0364, -0.0183 and 0.0547, respectively.

On to `C[C@@H](Nc1cc(F)cc(F)c1)c1cc(C(=O)N(C)C)cc2c(=O)cc(N3CCOCC3)oc12` [AZD8186] + CC(=O)c1c(C)c2cnc(Nc3ccc(N4CCNCC4)cn3)nc2n(C2CCCC2)c1=O [Palbociclib] (first compound max 10 µM, 7x7, partner max 10 µM), for which the Bliss excess was 0.0142 in test [1]; 0.0261 in test [2]; 0.0599 in test [3]; 0.0874 in test [4]; -0.0459 in [5]; -0.0022 in test [6]. In addition, the Bliss excess in [7] worked out at 0.11; in test [8] it was 0.138; in test [9], 0.0548.

With `C[C@@H](Oc1cc(-c2cnn(C3CCNCC3)c2)cnc1N)c1c(Cl)ccc(F)c1Cl` [Crizotinib] + CC1=C(C(=CC=C1)Cl)NC(=O)C2=CN=C(S2)NC3=CC(=NC(=N3)C)N4CCN(CC4)CCO [Dasatinib] (first compound max 10 µM, 7x7, partner max 2 µM), the Bliss excess in test [1] is 0.0295; in [2], -0.0289; in [3] it was 0.02; in test [4], 0.041; in test [5] it was 0.0371; in [6], -0.0172. Further, the Bliss excess in [7] is 0.182; in [8], -0.0089; in [9] it was -0.0204.

As for `C[C@@H](Oc1cc(-c2cnn(C3CCNCC3)c2)cnc1N)c1c(Cl)ccc(F)c1Cl` [Crizotinib] + Cn1cnc2c(F)c(Nc3ccc(Br)cc3Cl)c(C(=O)NOCCO)cc21 [Selumetinib] (first compound max 10 µM, 7x7, partner max 10 µM), the Bliss excess in test [1] was -0.0421; in test [2], 0.0221; in [3] it was -0.0531; in test [4], -0.0107; in test [5], 0.0212; in test [6] it was -0.0267. The Bliss excess in test [7] is 0.104; in [8] it was -0.0021; in [9] it was -0.086.

For `CS(=O)(=O)CCNCc1ccc(-c2ccc3ncnc(Nc4ccc(OCc5cccc(F)c5)c(Cl)c4)c3c2)o1` [Lapatinib] + Cn1cnc2c(F)c(Nc3ccc(Br)cc3Cl)c(C(=O)NOCCO)cc21 [Selumetinib] (first compound max 10 µM, 7x7, partner max 10 µM), the Bliss excess in test [1] was -0.0349; in test [2], -0.0388; in test [3], -0.0145; in test [4], 0.0006; in test [5] it was 0.0212; in test [6], 0.0997. Further, the Bliss excess in test [7] is 0.024; in test [8], -0.045; in [9], 0.0232.

Turning to `O=C(c1cc(Cc2n[nH]c(=O)c3ccccc23)ccc1F)N1CCN(C(=O)C2CC2)CC1` [Olaparib] + CC1(C)CCC(CN2CCN(c3ccc(C(=O)NS(=O)(=O)c4ccc(NCC5CCOCC5)c([N+](=O)[O-])c4)c(Oc4cnc5[nH]ccc5c4)c3)CC2)=C(c2ccc(Cl)cc2)C1 [Venetoclax] (first compound max 10 µM, 7x7, partner max 1 µM), the Bliss excess in test [1] was -0.0516; in [2], -0.0261; in test [3] it was -0.0404; in test [4] it was -0.023; in test [5] it was -0.0285; in test [6], 0.122. The Bliss excess in test [7] was 0.001; in [8] it was -0.0118; in test [9] it was -0.0145.

With `O=C(c1cc(Cc2n[nH]c(=O)c3ccccc23)ccc1F)N1CCN(C(=O)C2CC2)CC1` [Olaparib] + CN(CC[C@H](CSC1=CC=CC=C1)NC2=C(C=C(C=C2)S(=O)(=O)NC(=O)C3=CC=C(C=C3)N4CCC(CC4)[C@H](C5=CC=CC=C5C6=CC=C(C=C6)Cl)O)S(=O)(=O)C(F)(F)F)CCO [AZD4320] (first compound max 10 µM, 7x7, partner max 1 µM), the Bliss excess in test [1] is -0.0712; in test [2] it was 0.0025; in [3], -0.0445; in [4] it was -0.0189; in test [5], -0.0863; in test [6] it was 0.0353. Moreover, the Bliss excess in test [7] was -0.0009; in test [8], -0.0428; in test [9], -0.0153.

Regarding `O=C(c1cc(Cc2n[nH]c(=O)c3ccccc23)ccc1F)N1CCN(C(=O)C2CC2)CC1` [Olaparib] + COc1nnc2ccc(N3CCC(c4ccc(OCCN5CCN(C)C(=O)[C@H]5C)cc4)CC3)nn12 [AZD5153] (first compound max 10 µM, 7x7, partner max 1 µM), the Bliss excess in [1] was -0.0557; in test [2], -0.0335; in test [3] it was -0.0623; in test [4], 0.0202; in [5] it was -0.0768; in test [6], 0.007. Also, the Bliss excess was -0.0406 in test [7], -0.0412 in test [8] and 0.018 in [9].
